Holding throughout (test): relative viability (nuclei count vs DMSO), 5 days (fraction); higher = more cells survive
Compound in assay [1]: CC1=C(CC(=O)O)c2cc(F)ccc2/C1=C\c1ccc([S+](C)[O-])cc1 [Sulindac]
An outline of the steps:
(§1)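 Cells of lung cancer lines were placed in 1536-well plates and kept overnight at 37 °C. Pinning then delivered five library-drug doses (not always all listed), spaced by √10, onto plates anchored with vehicle, and the cells were left 5 days without changing medium. One step fixed, permeabilised and stained them with Hoechst, and MetaXpress counted nuclei in 4× images. Viability, as a median over plates, is treated-well nuclei divided by vehicle-well nuclei, with acceptance only at control CV below 25% and at least one doubling.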

Compound in assay [2]: CN[C@@H]1C[C@H]2O[C@@](C)([C@@H]1OC)n1c3ccccc3c3c4c(c5c6ccccc6n2c5c31)C(=O)NC4 [Staurosporine]
The method in brief: as §1

Compound in assay [3]: O=c1[nH]cc(F)c(=O)[nH]1 [5-Fluorouracil]
An outline of the steps: as §1

Compound in assay [4]: CC1=C(CC(=O)O)c2cc(F)ccc2/C1=C\c1ccc([S+](C)[O-])cc1 [Sulindac] + Cc1nc(NC(=O)N2CCC[C@H]2C(N)=O)sc1-c1ccnc(C(C)(C)C(F)(F)F)c1 [Alpelisib] (partner 2 µM)
An outline of the steps:
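Five library-drug doses in √10 steps were combined with a fixed anchor-drug dose, or a single drug was given alone, by pin tool to lung cancer cell lines in 1536-well plates the day after seeding. Nuclei were stained and counted after 5 days. Relative viability is the nuclei count in treated wells over that in vehicle wells, taken as the median of duplicate plates.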

The record followed here is the supplement of paper PMC10307832.

As for UMC-11, the relative viability came to 1.14 in assay [1] (0.08 µM); 1.01 in assay [1] (0.253 µM); 0.824 in assay [1] (0.8 µM); 0.869 in assay [1] (2.53 µM); 1.11 in assay [1] (8 µM); 0.977 in assay [2] (0.005 µM). Also, the relative viability in assay [2] (0.01581 µM) came out at 0.328; in assay [2] (0.05 µM), 0.295; in assay [2] (0.1581 µM), 0.123; in assay [2] (0.5 µM), 0.0871; in assay [3] (0.02 µM), 0.952; in assay [3] (0.2 µM), 0.783. Besides, the relative viability in assay [3] (0.6325 µM) turned out to be 0.519; in assay [4] (first compound 0.08 µM), 1.1; in assay [4] (first compound 0.253 µM) it was 1.05; in assay [4] (first compound 0.8 µM), 0.876; in assay [4] (first compound 2.53 µM), 0.98; in assay [4] (first compound 8 µM), 1.11.
